In patent US20240270762A1, “PENICILLIN-BINDING PROTEIN INHIBITORS” (priority 2021, published 2024):
≈ marks a conversion by molar mass, not a printed value.

Experiments:
[1] = target: T1, PBP1a from Acinetobacter baumannii (ATCC 19606) (Acinetobacter baumannii, UniProt A0ABX6CK30); experiment: Bocillin-FL fluorescence polarization competition binding, A. baumannii PBP1a; conditions: fluorescence polarization competition binding assay using Bocillin-FL; read-out: A. baumannii PBP1a Potency
T1 sequence (A0ABX6CK30 1-851): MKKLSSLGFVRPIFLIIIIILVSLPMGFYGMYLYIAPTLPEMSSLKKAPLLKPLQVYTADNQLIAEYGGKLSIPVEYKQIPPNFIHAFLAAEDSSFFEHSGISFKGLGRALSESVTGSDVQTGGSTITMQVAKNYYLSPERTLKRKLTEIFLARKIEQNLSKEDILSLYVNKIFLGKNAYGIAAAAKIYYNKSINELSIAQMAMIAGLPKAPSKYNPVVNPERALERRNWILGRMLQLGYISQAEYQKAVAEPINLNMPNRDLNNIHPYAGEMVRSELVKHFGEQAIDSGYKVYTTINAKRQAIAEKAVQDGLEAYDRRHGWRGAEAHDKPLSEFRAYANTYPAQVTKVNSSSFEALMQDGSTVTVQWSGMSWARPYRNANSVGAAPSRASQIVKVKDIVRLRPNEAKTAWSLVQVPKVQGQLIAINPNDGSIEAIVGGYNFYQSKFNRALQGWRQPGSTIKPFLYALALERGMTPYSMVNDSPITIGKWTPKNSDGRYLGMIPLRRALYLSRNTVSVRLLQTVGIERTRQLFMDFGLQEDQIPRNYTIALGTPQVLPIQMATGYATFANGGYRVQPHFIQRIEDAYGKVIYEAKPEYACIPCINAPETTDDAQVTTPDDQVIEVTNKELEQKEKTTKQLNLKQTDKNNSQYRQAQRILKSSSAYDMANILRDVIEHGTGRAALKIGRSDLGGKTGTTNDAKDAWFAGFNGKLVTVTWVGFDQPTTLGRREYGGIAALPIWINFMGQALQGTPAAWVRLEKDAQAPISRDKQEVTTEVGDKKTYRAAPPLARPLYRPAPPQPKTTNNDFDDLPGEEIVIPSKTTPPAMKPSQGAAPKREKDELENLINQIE
Excerpt: To determine the ability of boronic acid-based test PBP inhibitors to bind Penicillin Binding Proteins (PBPs), Bocillin-FL (fluorescently-labeled penicillin V; ThermoFisher Scientific) was used in a fluorescence polarization (FP) competition binding assay to assess inhibitor binding to PBP3 from Escherichia coli (K-12), PBP3 from Pseudomonas aeruginosa (PAO1), PBP1a and PBP3 from Acinetobacter baumannii (ATCC 19606), and PBP2 from Neisseria gonorrhoeae (FA19). PBPs were cloned and purified as described previously (E. coli PBP3, King, D. T, et al., ACS Infectious Diseases 2015, 1, 175-184; P. aeruginosa PBP3, Han et. al., PNAS 2010, 107 (51), 22002-22007; A. baumannii PBPs, Penwell et. al., Antimicrob. Agents Chemother. 2015, 59 (3), 1680-1689; N. gonorrhoeae PBP2, Singh et. al., J. Biol. Chem. 2019, 294 (38), 14020-14032). To establish assay conditions for competition binding, enzyme titration/saturation binding experiments were initially performed. Bocillin-FL was prepared at 0.2 μM in a buffer comprised of 50 mM Hepes (pH 8.0), 300 mM NaCl and 10% (v/v) glycerol for reactions with E. coli, P. aeruginosa and N. gonorrhoeae PBPs, and 25 mM Tris (pH 8.0), 200 mM NaCl, 10% (v/v) glycerol and 0.005% (v/v) Tween 20 for reactions with A. baumannii PBPs. Saturation binding was performed by mixing 40 μl of PBP solutions ranging in concentrations from 0-24 μM with 40 μl of the 0.2 μM Bocillin-FL solution, in individual wells of a black 384-well microplate. FP was measured immediately upon mixing (Excitation, 490 nm; Emission, 520 nm; g-factor, 0.96), using a Cytation3 (BioTek) microplate reader and measured continuously for up to 120 minutes. The FP response stabilized after 15 minutes for P. aeruginosa and A. baumannii PBP3, 30 minutes for E. coli PBP3 and A. baumannii PBP1a, and less than 1 minute for N. gonorrhoeae PBP2. […] The competition binding assay (80 μl final volume) was validated using beta-lactams and PBPs at final concentrations of: 1.5 μM for E. coli PBP3; 0.75 μM for P. aeruginosa PBP3; 1 μM for A. baumannii PBP1a; 0.2 μM for A. baumannii PBP3; and 0.25 μM for N. gonorrhoeae PBP2. Bocillin-FL was at 0.1 μM (0.05 μM with A. baumannii PBP1a) and beta-lactam concentrations ranged from 0-1,000 μM. E. coli PBP3 was incubated with increasing concentrations of ampicillin in a black 384-well microplate (Corning) for 30 minutes. P. aeruginosa PBP3 was incubated for 15 minutes with aztreonam, whereas A. baumannii PBP1a and PBP3 were incubated for 15 minutes with meropenem, and then Bocillin-FL was added followed immediately by the FP measurement for up to 60 minutes. […] The beta-lactam potency was reported as the concentration of beta-lactam required to reduce the amount of PBP bound-Bocillin-FL by 50% (EC50). […] The EC50 of aztreonam was determined to be <0.5 μM for P. aeruginosa PBP3. […] Binding assays for boronic acid PBP inhibitors were performed in an identical fashion for the respective PBPs.

[2] = system: P. aeruginosa ATCC 27853; experiment: microbe, parasite or virus in culture; assay type: cell-based; conditions: Pseudomonas aeruginosa, ATCC27853, read-out: Minimum inhibitory concentration, P. aeruginosa ATCC 27853
[3] = system: B. thailandensis ATCC 700388; experiment: microbe, parasite or virus in culture; assay type: cell-based; conditions: Burkholderia thailandensis, ATCC700388, read-out: Minimum inhibitory concentration (MIC), B. thailandensis ATCC 700388
[4] = system: P. aeruginosa CDC-0110; experiment: microbe, parasite or virus in culture; assay type: cell-based; conditions: Pseudomonas aeruginosa, CDC0110, read-out: Minimum inhibitory concentration, P. aeruginosa CDC-0110
[5] = system: B. pseudomallei Bp82; experiment: microbe, parasite or virus in culture; assay type: cell-based; conditions: Burkholderia pseudomallei, BP82, read-out: Minimum inhibitory concentration, B. pseudomallei Bp82
[6] = system: A. baumannii 1258916; experiment: microbe, parasite or virus in culture; assay type: cell-based, Acinetobacter baumannii; conditions: Acinetobacter baumannii, 1258916, read-out: MIC, A. baumannii 1258916
[7] = system: P. aeruginosa (ΔmexAB-oprM); experiment: Broth microdilution MIC in iron-depleted CAMHB (IDM); assay type: cell-based; conditions: Pseudomonas aeruginosa; iron-depleted CAMHB (IDM); […]; read-out: Minimum inhibitory concentration, P. aeruginosa ΔmexAB-oprM

Compound | IC50 [1] [µM] | MIC [2] [µg/mL] | MIC [3] [µg/mL] | MIC [4] [µg/mL] | MIC [5] [µg/mL] | MIC [6] [µg/mL] | MIC [7] [µg/mL]
CS(=O)(=O)N1CCN(C(=O)N[C@@H](C(=O)N[C@H]2Cc3cccc(C(=O)O)c3OB2O)c2ccc(P(=O)(O)O)c(F)c2F)C1=O (single isomer, unassigned) [Example 13] | > 250 | – | – | – | – | – | –
O=C(O)c1c(F)ccc2c1OB(O)[C@@H](NC(=O)C(NC(=O)N1CCN(Cc3ccc(O)c(O)c3Cl)C(=O)C1=O)c1ccc(P(=O)(O)O)cc1)C2 (stereo partly drawn) [Example 8, (3R)-3-(2-(4-(2-chloro-3,4-dihydroxybenzyl)-2,3-dioxopiperazine-1-carboxamido)-2-(4-phosphonophenyl)acetamido)-7-fluoro-2-hydroxy-3,4-dihydro-2H-benzo[e][1,2]oxaborinine-8-carboxylic acid] | – | < 1 | < 1 | < 1 | < 1 | < 1 | < 1
CS(=O)(=O)N1CCN(C(=O)NC(C(=O)N[C@H]2Cc3cccc(C(=O)O)c3OB2O)c2ccc(P(=O)(O)O)c(Cl)c2)C1=O (stereo partly drawn) [Example 11, (3R)-3-(2-(3-chloro-4-phosphonophenyl)-2-(3-(methylsulfonyl)-2-oxoimidazolidine-1-carboxamido)acetamido)-2-hydroxy-3,4-dihydro-2H-benzo[e][1,2]oxaborinine-8-carboxylic acid] | 50 to 250 | – | – | – | – | – | –
CS(=O)(=O)N1CCN(C(=O)N[C@@H](C(=O)N[C@H]2Cc3ccc(F)c(C(=O)O)c3OB2O)c2ccc(P(=O)(O)O)c(F)c2F)C1=O [Example 16, (R)-3-((R)-2-(2,3-difluoro-4-phosphonophenyl)-2-(3-(methylsulfonyl)-2-oxoimidazolidine-1-carboxamido)acetamido)-7-fluoro-2-hydroxy-3,4-dihydro-2H-benzo[e][1,2]oxaborinine-8-carboxylic acid] | > 250 | – | – | – | – | – | –
CCN1CCN(C(=O)NC(C(=O)N[C@H]2Cc3cccc(C(=O)O)c3OB2O)c2ccc(CP(=O)(O)O)cc2)C(=O)C1=O (stereo partly drawn) [Example 20, (3R)-3-(2-(4-ethyl-2,3-dioxopiperazine-1-carboxamido)-2-(4-(phosphonomethyl)phenyl)acetamido)-2-hydroxy-3,4-dihydro-2H-benzo[e][1,2]oxaborinine-8-carboxylic acid] | > 250 | – | – | – | – | – | –
CCN1CCN(C(=O)NC(C(=O)N[C@H]2Cc3cccc(C(=O)O)c3OB2O)c2cccc(CP(=O)(O)O)c2)C(=O)C1=O (stereo partly drawn) [Example 22, (3R)-3-(2-(4-ethyl-2,3-dioxopiperazine-1-carboxamido)-2-(3-(phosphonomethyl)phenyl)acetamido)-2-hydroxy-3,4-dihydro-2H-benzo[e][1,2]oxaborinine-8-carboxylic acid] | > 250 | – | – | – | – | – | –
O=C(O)c1c(F)ccc2c1OB(O)[C@@H](NC(=O)C(NC(=O)N1CCN(Cc3ccc(O)c(O)c3Cl)C(=O)C1=O)c1ccc(P(=O)(O)O)c(F)c1)C2 (stereo partly drawn) [Example 23, (3R)-3-(2-(4-(2-chloro-3,4-dihydroxybenzyl)-2,3-dioxopiperazine-1-carboxamido)-2-(3-fluoro-4-phosphonophenyl)acetamido)-7-fluoro-2-hydroxy-3,4-dihydro-2H-benzo[e][1,2]oxaborinine-8-carboxylic acid] | > 250 | < 1 | < 1 | < 1 | – | < 1 | < 1
O=C(O)c1cccc2c1OB(O)[C@@H](NC(=O)C(NC(=O)N1CCN(Cc3ccc(O)c(O)c3Cl)C(=O)C1=O)c1ccc(P(=O)(O)O)cc1)C2 (stereo partly drawn) [Example 24, (3R)-3-(2-(4-(2-chloro-3,4-dihydroxybenzyl)-2,3-dioxopiperazine-1-carboxamido)-2-(4-phosphonophenyl)acetamido)-2-hydroxy-3,4-dihydro-2H-benzo[e][1,2]oxaborinine-8-carboxylic acid] | > 250 | 2 to 4 (≈ 2.79 to 5.58 µM) | < 1 | < 1 | – | < 1 | < 1
O=C(O)c1c(F)ccc2c1OB(O)[C@@H](NC(=O)C(NC(=O)N1CCN(Cc3cc(F)c(O)c(O)c3Cl)C(=O)C1=O)c1ccc(P(=O)(O)O)cc1)C2 (stereo partly drawn) [Example 45, (3R)-3-(2-(4-(2-chloro-5-fluoro-3,4-dihydroxybenzyl)-2,3-dioxopiperazine-1-carboxamido)-2-(4-phosphonophenyl)acetamido)-7-fluoro-2-hydroxy-3,4-dihydro-2H-benzo[e][1,2]oxaborinine-8-carboxylic acid] | > 250 | < 1 | < 1 | < 1 | – | < 1 | < 1
O=C(O)c1c(F)ccc2c1OB(O)[C@@H](NC(=O)C(NC(=O)N1CCN(Cc3ccc(O)c(O)c3Cl)C1=O)c1ccc(P(=O)(O)O)cc1)C2 (stereo partly drawn) [Example 46, (3R)-3-(2-(3-(2-chloro-3,4-dihydroxybenzyl)-2-oxoimidazolidine-1-carboxamido)-2-(4-phosphonophenyl)acetamido)-7-fluoro-2-hydroxy-3,4-dihydro-2H-benzo[e][1,2]oxaborinine-8-carboxylic acid] | > 250 | 2 to 4 (≈ 2.83 to 5.66 µM) | < 1 | < 1 | – | – | < 1
